From patent US5045566A, “Novel imidate insecticides” (ICI Americas Inc., priority 1989, dated 1991)

Assays:
Assay type in all cases: in vivo
[1] = system: Housefly [Musca domestica]; assay: Housefly contact mortality in dishes (HF), 48 hours; conditions: μg of test compound per 25 female flies
Procedure, shortened: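 Dry-film exposure of 25 female houseflies per cage, 48 h; LC50 as μg per 25 flies.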

[2] = system: Black Bean Aphid [Aphis fabae (Scop.)]; assay: Black bean aphid spray test on nasturtium (BBA), 48 hours; conditions: percent of test compound in sprayed solution
Procedure, shortened: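 LC50, given as percent test compound in the sprayed liquid, was calculated from dosage-mortality curves using concentrations from 0.05% downward. Sprays in 50:50 acetone-water went to runoff on ~5 cm nasturtiums carrying 25-50 aphids of mixed ages, one day after infestation. Deaths were counted 48 h later under greenhouse conditions.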

[3] = system: Tobacco Budworm [Heliothis virescens (Fabricius)] eggs; assay: Tobacco budworm eggs (TBW-E); conditions: percent in solution; 2-day old eggs
Procedure, shortened: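 Step 1: dip 2-day old egg patches in acetone test solutions (top concentration 0.1%). Step 2: hold in dishes with rearing medium at 78° F. Step 3: record mortality after control hatch and feeding.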

[4] = system: Cabbage Looper [Trichoplusia ni (Hubner)]; assay: Cabbage looper leaf dip (CL), 3-5 days; conditions: percent in solution, second-instar larvae
Procedure, shortened: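 Squash cotyledons dipped in test solution (acetone-water 50-50, ≤0.1%), dried, offered to 5 second-instar larvae; mortality after 3-5 days gives LC50.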

[5] = system: Aster Leafhopper [Macrosteles fascifrens (Stal)]; assay: Aster leafhopper on dipped oat seedlings (LH), 48 hours; conditions: percent in solution, adults/nymphs
Procedure, shortened: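 LC50 values, given as percent of test compound in the dip solution, were derived from dosage-mortality curves over concentrations from 0.05% downward. Mortality was counted 48 hours after ten leafhopper adults/nymphs were enclosed on treated seedlings. The seedlings were oats, about 10 cm tall, briefly dipped in 50-50 acetone-water.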

[6] = system: Maize weevil [Sitophilus zeamais (Motschulsky)]; assay: Maize weevil on dipped corn seeds (MW), 48 hours; conditions: percent in solution, adult weevils
Procedure, shortened: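 LC50, given as percent of compound in dipping solution, comes from dosage-mortality curves over concentrations descending from 0.01%. Four corn seeds soaked 2-3 s in 50:50 acetone:water solution were dried and held with 10 adult weevils, about 25° C, mortality read after 48 h.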

Row | Compound | LC50 HF [1] | LC50 BBA [2] | LC50 TBW E (eggs) [3] | LC50 CL [4] | LC50 LH [5] | LC50 MW [6]
1 | CC(C)(F)C(=Nc1ccc(F)c(Cl)c1)OCc1cc(Oc2ccc(F)cc2)ccc1F [Compound 316] | 100 µg | > 0.05% | > 0.1% | 0.0015% | > 0.05% | > 0.01%
2 | CC(C)C(=Nc1cccc(C(C)(C)C)c1)OCc1cccc(Oc2ccc(F)cc2)c1 [Compound 350] | > 100 µg | > 0.05% | > 0.1% | 0.0045% | > 0.05% | > 0.01%
3 | CC(C)C(=Nc1ccc(Br)cc1F)OCc1cccc(Oc2ccc(F)cc2)c1 [Compound 351] | 26 µg | 0.001% | > 0.1% | 0.0007% | > 0.05% | > 0.01%
4 | CSc1ccc(N=C(OCc2ccc(F)c(Oc3ccccc3)c2)C(C)C)cc1 [Compound 353] | < 100 µg | 0.001% | > 0.1% | > 0.1% | > 0.05% | > 0.01%
5 | Cc1ccc(N=C(OCc2ccc(F)c(Oc3ccccc3)c2)C(C)C)cc1F [Compound 354] | < 100 µg | 0.001% | 0.018% | > 0.1% | < 0.05% | 0.0068%
6 | Cc1ccc(N=C(OCc2ccc(F)c(Oc3ccc(F)cc3)c2)C(C)C)cc1F [Compound 355] | < 100 µg | 0.0006% | > 0.1% | > 0.1% | < 0.05% | > 0.01%
7 | Cc1ccc(N=C(OCc2ccc(F)c(Oc3ccccc3)c2)C(C)C)cc1Cl [Compound 356] | < 100 µg | 0.001% | 0.025% | > 0.1% | < 0.05% | > 0.01%
8 | Cc1ccc(N=C(OCc2ccc(F)c(Oc3ccc(F)cc3)c2)C(C)C)cc1Cl [Compound 357] | < 100 µg | 0.0003% | > 0.1% | > 0.1% | < 0.05% | 0.01%
9 | Cc1cc(N=C(OCc2ccc(F)c(Oc3ccccc3)c2)C(C)C)ccc1Br [Compound 358] | < 100 µg | 0.0003% | > 0.1% | > 0.1% | < 0.05% | > 0.01%
10 | Cc1cc(N=C(OCc2ccc(F)c(Oc3ccc(F)cc3)c2)C(C)C)ccc1Br [Compound 359] | < 100 µg | 0.0006% | 0.023% | > 0.1% | 0.05% | > 0.01%
11 | CCc1ccc(N=C(OCc2ccc(F)c(Oc3ccccc3)c2)C(C)C)cc1 [Compound 360] | < 100 µg | 0.0006% | > 0.1% | 0.006% | < 0.05% | > 0.01%
12 | CCc1ccc(N=C(OCc2ccc(F)c(Oc3ccc(F)cc3)c2)C(C)C)cc1 [Compound 361] | < 100 µg | 0.0003% | 0.04% | 0.001% | < 0.05% | > 0.01%
13 | CSc1cccc(N=C(OCc2ccc(F)c(Oc3ccccc3)c2)C(C)C)c1 [Compound 362] | < 100 µg | 0.005% | > 0.1% | > 0.1% | > 0.05% | > 0.01%
14 | COc1ccc(N=C(OCc2ccc(F)c(Oc3ccc(F)cc3)c2)C(C)C)cc1OC [Compound 363] | < 100 µg | 0.005% | > 0.1% | > 0.1% | > 0.05% | > 0.01%
15 | CC(C)C(=Nc1ccc(Br)c(C(F)(F)F)c1)OCc1ccc(F)c(Oc2ccc(F)cc2)c1 [Compound 364] | < 100 µg | 0.001% | 0.025% | 0.00045% | < 0.05% | > 0.01%
16 | CC(C)C(=Nc1ccc(C(F)(F)F)cc1)OCc1cccc(Oc2ccc(Cl)cc2)c1 [Compound 365] | > 100 µg | 0.003% | 0.038% | 0.00025% | < 0.05% | > 0.01%
17 | CC(C)C(=Nc1ccc2c(c1)OCO2)OCc1ccc(F)c(Oc2ccc(Cl)cc2)c1 [Compound 366] | < 100 µg | 0.0006% | 0.012% | 0.0007% | 0.05% | > 0.01%
18 | CC(C)C(=Nc1ccc2c(c1)OCO2)OCc1cccc(Oc2ccc(C(C)(C)C)cc2)c1 [Compound 367] | > 100 µg | > 0.05% | > 0.1% | < 0.1% | > 0.05% | > 0.01%
19 | CC(C)C(=Nc1ccc(F)cc1)OCCc1cccc(Oc2ccccc2)c1 [Compound 456] | > 100 µg | 0.01% | > 0.05% | 0.017% | > 0.05% | > 0.01%
20 | CC(C)C(=Nc1ccc(F)c(Cl)c1)OCc1ccc(OCc2ccccc2)cc1 [Compound 475] | > 100 µg | > 0.05% | > 0.1% | 0.008% | > 0.05% | > 0.01%
21 | C=CCOc1cccc(COC(=Nc2ccc(F)c(Cl)c2)C(C)C)c1 [Compound 479] | 66 µg | > 0.05% | > 0.1% | 0.013% | > 0.05% | > 0.01%
22 | CC(C)C(=Nc1ccc(F)c(Cl)c1)OCc1cccc(OCc2ccc(F)cc2)c1 [Compound 490] | > 100 µg | > 0.05% | > 0.1% | 0.0045% | > 0.05% | > 0.01%
23 | CC(C)C(=Nc1ccc(F)c(Cl)c1)OCc1cccc(Oc2ccc(Br)cc2)n1 [Compound 492] | 15 µg | > 0.05% | 0.015% | 0.00028% | > 0.05% | > 0.01%
24 | CC(C)C(=Nc1ccc(F)c(Cl)c1)OCc1cccc(Nc2ccc(F)cc2)c1 [Compound 512] | 35 µg | > 0.05% | > 0.1% | 0.003% | > 0.05% | > 0.01%
25 | CC(C)C(=Nc1cccc(C(F)(F)F)c1)OCc1cccc(Nc2ccc(F)cc2)c1 [Compound 513] | 81 µg | > 0.05% | > 0.1% | 0.007% | > 0.05% | > 0.01%
26 | CC(C)C(=Nc1ccc(Cl)c(Cl)c1)OCc1cccc(Nc2ccc(F)cc2)c1 [Compound 514] | > 100 µg | 0.003% | > 0.1% | 0.008% | > 0.05% | > 0.01%
27 | CC(C)C(=Nc1ccc2c(c1)OCO2)OCc1cc(Oc2ccc(F)cc2)ccn1 [Compound 515] | 28 µg | > 0.05% | > 0.1% | 0.0015% | > 0.05% | > 0.01%
28 | CC(C)C(=Nc1ccc(F)c(Cl)c1)OCc1cc(Oc2ccc(Cl)cc2)ccn1 [Compound 516] | > 100 µg | > 0.05% | > 0.1% | 0.008% | > 0.05% | > 0.01%
29 | CC(C)C(=Nc1cccc(C(F)(F)F)c1)OCc1ccnc(Oc2ccc(Cl)cc2)c1 [Compound 517] | 80 µg | > 0.05% | 0.04% | 0.0008% | > 0.05% | > 0.01%
30 | CC(C)C(=Nc1cccc(C(F)(F)F)c1)OCc1cccc(Oc2ccc(Cl)cn2)c1 [Compound 518] | > 100 µg | > 0.05% | > 0.1% | 0.00075% | > 0.05% | > 0.01%
